{"source": "patent US7524852B2", "about": "“Bicyclic pyrimidine derivatives” (Kyowa Hakko Kogyo Co., Ltd., priority 2002, dated 2009)", "data": [{"system": "Hut78 cells", "assay": "Inhibitory activity on binding of [125I]-TARC to Hut78 cells", "details": "[125I]-TARC binding to Hut78 cells; test compound at 1 μmol/L", "experimental": "The RPMI-1640 medium (Sigma-Aldrich Japan) containing 20 mmol/L HEPES [4-(2-hydroxyethyl)-1-piperazinylethanesulfonic acid; HEPES, Nacalai Tesque, Inc.] and 0.1 w/v % bovine serum albumin (SEIKAGAKU CORPORATION) was adjusted to pH 7.0 with sodium hydrogen carbonate (Wako Pure Chemical Industries, Ltd.) to yield a binding/wash buffer. In a 96-well round-bottomed plate (Corning Costar Corporation) were placed 60 μL of a suspension of Hut78 cells (ATCC No. TIB-161) ([…] cells) in the binding/wash buffer, 20 μL of a solution of a test compound and 20 μL of a solution of 810 Bq of [^125I]-TARC (Amersham Biosciences K.K.) diluted with the binding/wash buffer up to the total aliquot of 100 μL, followed by reaction at room temperature for two hours. The solution of the test compound had been prepared by dissolving the test compound in dimethyl sulfoxide (Nacalai Tesque, Inc.) to a concentration of 10 mmol/L, and diluting the solution with the binding/wash buffer to a series of concentrations. The nonspecific binding was determined by a binding assay in the presence of a sufficient amount of unlabeled TARC. The total binding was defined as a binding in the case where dimethyl sulfoxide (Nacalai Tesque, Inc.) was added, instead of the test compound, in the same concentration (0.1 v/v %). […] Microscinti 20 (Packard BioScience Company) was placed in each well at 50 μL/well, and the radioactivity on the glass filter was determined using Topcount NXT™ (Packard BioScience Company). The binding inhibitory rates (%) of the test compounds were determined by calculation according to the following equation:\n[formula] Total binding: [^125I]-TARC binding radioactivity without addition of the test compound Binding upon addition of test compound: [^125I]-TARC binding radioactivity at respective concentration upon addition of test compound Nonspecific binding: [^125I]-TARC binding radioactivity upon addition of unlabeled TARC", "values": [{"compound": "CCCNC(=O)N1CCc2nc(N3CCN(CC4CN(C)CCO4)CC3)nc(NCc3ccc(Cl)cc3Cl)c2C1", "note": "(stereo not drawn) [Compound 15-54]", "The Binding Inhibitory Rates at 1 μmol/L": 97}, {"compound": "CCNC(=O)N1CCc2nc(N3CCN(C[C@@H]4CN(C)CCO4)CC3)nc(NCc3ccc(Cl)cc3Cl)c2C1", "note": "[Compound 15-47]", "The Binding Inhibitory Rates at 1 μmol/L": 96}, {"compound": "CCCNC(=O)N1CCc2nc(N3CCN(CC4CN(C)CCO4)CC3)nc(NCc3ccc(Cl)cc3Cl)c2C1", "note": "(stereo not drawn) [Compound 15-59]", "The Binding Inhibitory Rates at 1 μmol/L": 90}]}]}
